Experimental data: PubChem BioAssay AID1963854 (Molecular Pharmacology Branch, DTP, NCI, 2024)

System: 186277-243-T-J2-PDC complex spheroid viability
Assay: Anticancer human tumor 186277-243-T-J2-PDC patient-derived colon adenocarcinoma cell line growth inhibition [POLQ]
Details: for IC50: curve of first compound; for viability, T/C: stronger effect = lower value
Method in brief: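 Three-cell-type spheroids modelling solid tumor plus stroma served as the readout system; POL inhibitors were tested individually and in combination, concentration ranges set by clinical Cmax where known.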

[1] = second compound 0.0316 µM, first compound 0.0316 µM
[2] = second compound 0.0316 µM, first compound 0.1 µM
[3] = second compound 0.0316 µM, first compound 0.316 µM
[4] = second compound 0.0316 µM, first compound 1 µM
[5] = second compound 0.0316 µM, first compound 3.16 µM
[6] = second compound 0.0316 µM, first compound 10 µM
[7] = second compound 0.1 µM, first compound 0.0316 µM
[8] = second compound 0.1 µM, first compound 0.1 µM
[9] = second compound 0.1 µM, first compound 0.316 µM
[10] = second compound 0.1 µM, first compound 1 µM
[11] = second compound 0.1 µM, first compound 3.16 µM
[12] = second compound 0.1 µM, first compound 10 µM
[13] = second compound 0.316 µM, first compound 0.0316 µM
[14] = second compound 0.316 µM, first compound 0.1 µM
[15] = second compound 0.316 µM, first compound 0.316 µM
[16] = second compound 0.316 µM, first compound 1 µM
[17] = second compound 0.316 µM, first compound 3.16 µM
[18] = second compound 0.316 µM, first compound 10 µM
[19] = second compound 1 µM, first compound 0.0316 µM
[20] = second compound 1 µM, first compound 0.1 µM
[21] = second compound 1 µM, first compound 0.316 µM
[22] = second compound 1 µM, first compound 1 µM
[23] = second compound 1 µM, first compound 3.16 µM
[24] = second compound 1 µM, first compound 10 µM
[25] = second compound 3.16 µM, first compound 0.0316 µM
[26] = second compound 3.16 µM, first compound 0.1 µM
[27] = second compound 3.16 µM, first compound 0.316 µM
[28] = second compound 3.16 µM, first compound 1 µM
[29] = second compound 3.16 µM, first compound 3.16 µM
[30] = second compound 3.16 µM, first compound 10 µM
[31] = second compound 10 µM, first compound 0.0316 µM
[32] = second compound 10 µM, first compound 0.1 µM
[33] = second compound 10 µM, first compound 0.316 µM
[34] = second compound 10 µM, first compound 1 µM
[35] = second compound 10 µM, first compound 3.16 µM
[36] = second compound 10 µM, first compound 10 µM
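Note: spheroids exposed to compounds for seven days.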
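Throughout, for viability, T/C: 100% = DMSO vehicle control viability.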

`COc1cccc2c1C(=O)c1c(O)c3c(c(O)c1C2=O)CC(O)(C(=O)CO)CC3OC1CC(N)C(O)C(C)O1` (centres undefined) + COC1C(OC(N)=O)C(O)C(Oc2ccc3c(O)c(NC(=O)c4ccc(O)c(CC=C(C)C)c4)c(=O)oc3c2C)OC1(C)C showed an IC50 (second compound 0.0316 µM) of 0.0777 µM, an IC50 (second compound 0.1 µM) of 0.0887 µM and an IC50 (second compound 0.316 µM) of 0.0916 µM. The IC50 (second compound 1 µM) was 0.0924 µM, the IC50 (second compound 3.16 µM) was 0.0921 µM and the IC50 (second compound 10 µM) was 0.0864 µM. It also gave a viability, T/C [1] of 89.2%, a viability, T/C [2] of 38.9% and a viability, T/C [3] of 9.13%. For the same molecule, the viability, T/C [4] was 0.32%, the viability, T/C [5] was 0.18% and the viability, T/C [6] was 0.46%. For the same molecule, the viability, T/C [7] was 94.1%, the viability, T/C [8] was 44.9% and the viability, T/C [9] was 8.43%. The viability, T/C [10] was 0.24%, the viability, T/C [11] was 0.13% and the viability, T/C [12] was 0.51%. The viability, T/C [13] was 90.7%, the viability, T/C [14] was 46.6% and the viability, T/C [15] was 9.28%. It also gave a viability, T/C [16] of 0.18%, a viability, T/C [17] of 0.13% and a viability, T/C [18] of 0.36%. The viability, T/C [19] was 92.1%, the viability, T/C [20] was 46.9% and the viability, T/C [21] was 9.15%. For the same molecule, the viability, T/C [22] was 0.2%, the viability, T/C [23] was 0.16% and the viability, T/C [24] was 0.36%. The viability, T/C [25] was 88.9%, the viability, T/C [26] was 47% and the viability, T/C [27] was 8.15%. The viability, T/C [28] was 0.24%, the viability, T/C [29] was 0.2% and the viability, T/C [30] was 0.37%. It also gave a viability, T/C [31] of 95.8%, a viability, T/C [32] of 43.3% and a viability, T/C [33] of 8.67%. It also gave a viability, T/C [34] of 0.31%, a viability, T/C [35] of 0.31% and a viability, T/C [36] of 0.68%.

`CNCc1ccc(-c2[nH]c3cc(F)cc4c3c2CCNC4=O)cc1` + Cc1cccc(N(C)C(=O)C2C(O)CCN2c2nc(C)cc(C(F)(F)F)c2C#N)c1 gave an IC50 (second compound 0.0316 µM) greater than 10 µM, an IC50 (second compound 0.1 µM) greater than 10 µM and an IC50 (second compound 0.316 µM) greater than 10 µM. It also gave an IC50 (second compound 1 µM) greater than 10 µM, an IC50 (second compound 3.16 µM) greater than 10 µM and an IC50 (second compound 10 µM) greater than 10 µM. The viability, T/C [1] was 105%, the viability, T/C [2] was 97.5% and the viability, T/C [3] was 104%. The viability, T/C [4] was 102%, the viability, T/C [5] was 102% and the viability, T/C [6] was 97.5%. It also gave a viability, T/C [7] of 81.2%, a viability, T/C [8] of 98.9% and a viability, T/C [9] of 107%. The viability, T/C [10] was 108%, the viability, T/C [11] was 115% and the viability, T/C [12] was 91.1%. For the same molecule, the viability, T/C [13] was 103%, the viability, T/C [14] was 109% and the viability, T/C [15] was 94.8%. For the same molecule, the viability, T/C [16] was 105%, the viability, T/C [17] was 93.8% and the viability, T/C [18] was 91.7%. For the same molecule, the viability, T/C [19] was 102%, the viability, T/C [20] was 105% and the viability, T/C [21] was 95.2%. It also gave a viability, T/C [22] of 95%, a viability, T/C [23] of 105% and a viability, T/C [24] of 76.9%. For the same molecule, the viability, T/C [25] was 100%, the viability, T/C [26] was 108% and the viability, T/C [27] was 107%. For the same molecule, the viability, T/C [28] was 105%, the viability, T/C [29] was 115% and the viability, T/C [30] was 78.4%. The viability, T/C [31] was 106%, the viability, T/C [32] was 98.4% and the viability, T/C [33] was 107%. For the same molecule, the viability, T/C [34] was 90.1%, the viability, T/C [35] was 94.2% and the viability, T/C [36] was 69.4%.
